Laboratory results published in patent publication US20060100260A1, “Substituted pyrazoline carboxanilides for use as pesticides” (priority 2002, published 2006).

Assays:
[1] = logP determination by HPLC (EEC Directive 79/831 Annex V.A8); type: physicochemical; settings: reversed-phase HPLC column (C 18), pH 2.3, reversed-phase column (C 18), 43° C.
Description: The logP values given in the Preparation Examples are determined in accordance with EEC Directive 79/831 Annex V.A8 by HPLC (High Performance Liquid Chromatography) using a reversed-phase column (C 18). Temperature: 43° C.
The determination is carried out in the acidic range at pH 2.3 using the mobile phases 0.1% aqueous phosphoric acid and acetonitrile; linear gradient from 10% acetonitrile to 90% acetonitrile.
Calibration is carried out using unbranched alkan-2-ones (having 3 to 16 carbon atoms) with known logP values (determination of the logP values by the retention times using linear interpolation between two successive alkanones).

[2] = tested on: larvae of the mustard beetle (Phaedon cochleariae); experiment: Phaedon larvae test; type: in vivo; settings: active compound concentration 100 ppm; after 7 days; dipped cabbage leaves
Description: (§1) [table] To produce a suitable preparation of active compound, 1 part by weight of active compound is mixed with the stated amounts of solvent and emulsifier, and the concentrate is diluted with emulsifier-containing water to the desired concentration. Cabbage leaves (Brassica oleracea) are treated by being dipped into the preparation of active compound of the desired concentration and are populated with larvae of the mustard beetle (Phaedon cochleariae) while the leaves are still moist. After the desired period of time, the kill in % is determined. 100% means that all beetle larvae have been killed; 0% means that none of the beetle larvae have been killed.

[3] = tested on: caterpillars of the diamondback moth (Plutella xylostella); experiment: Plutella test; type: in vivo; settings: active compound concentration 100 ppm; after 7 days; dipped cabbage leaves
Description: as §1, with “caterpillars” for “larvae”, “diamondback moth (Plutella xylostella)” for “mustard beetle (Phaedon cochleariae)”, “caterpillars” for “beetle larvae”

[4] = tested on: caterpillars of the armyworm (Spodoptera frugiperda); experiment: Spodoptera frugiperda test; type: in vivo; settings: active compound concentration 100 ppm; after 7 days; dipped cabbage leaves
Description: as §1, with “caterpillars” for “larvae”, “armyworm (Spodoptera frugiperda)” for “mustard beetle (Phaedon cochleariae)”, “caterpillars” for “beetle larvae”

[5] = tested on: Heliothis armigera; experiment: Heliothis armigera test; type: in vivo; settings: active compound concentration 100 ppm; after 7 days; dipped soya bean shoots

SMILES	chromatographic logP [1]	kill [2]	kill [3]	kill [4]	kill [5]
N#CCN(C(=O)N1CC(n2cc(Cl)cn2)C(c2ccc(Cl)cc2)=N1)c1ccc(Cl)cc1 (stereo not drawn) [Example 1, 3-(4-chlorophenyl)-4-(4-chloropyrazol-1-yl)-4,5-dihydro-1-pyrazolecarboxylic acid (N-cyanomethyl)-4-chloroanilide]	3.94	100%	100%	100%	100%
Clc1ccc(C2=NNCC2n2cc(Cl)cn2)cc1 (stereo not drawn) [Example (II-1), 3-(4-chlorophenyl)-4-(4-chloropyrazol-1-yl)-4,5-dihydro-1H-pyrazole]	2.64	–	–	–	–
